Experimental data from patent US7393839B2, “Polymorphic antiviral nucleoside compounds” (Roche Palo Alto LLC, priority 2003, dated 2008).
Where a name gives a salt, the structure may show the parent alone.

Assays:
[1] = Accelerated stability study (Form A): temperature, humidity, light; format: physicochemical
Procedure: Stability samples were evaluated for appearance, water content, chemical stability using an HPLC method and physical stability using DSC, specific rotation and x-ray powder diffraction methods. Photochemical stability was assessed by comparison with a control sample that was wrapped in aluminum foil and set side by side with the light sample in the light chamber.
DSC Thermograms were collected using a 2920 Modulated DSC from Thermal Analyzer (TA) Instruments. The heating rate was 10° C./min with a nitrogen purge maintained throughout the run.
Chromatography was carried out on a Zorbax SB-CN, 4.6×150 mm, 3.5 μm column. A ternary solvent gradient was used comprised of (A) water, (B) acetonitrile and (C) 200 mM heptane sulfonic acid sodium salt, monohydrate with 1% phosphoric acid in water. To prepare 500 mL of the solution, dissolve 22.0 g of 1-heptane sulfonic acid sodium salt, monohydrate in about 400 mL of water. Add 5 mL of phosphoric acid, 85% and then dilute to a volume of 500 mL with water and mix thoroughly. A flow rate of 1.0 mL/m was used. The column was run isocratically with 90% A and 10% C for 5 m. A linear gradient to 20% A, 70% B and 10% C was run over 20 m. This mixture was run isocratically for an addition 5 m after which the solvent was ramped back to 90% A and […] over 2 m followed by 8 m to reequilibrate the column. The column was maintained at 40° C.

[2] = Vapor sorption analysis (hygroscopicity); format: physicochemical
Text: Vapor sorption analysis was used to assess the hygroscopicity of the Form A polymorph. The experiment was run in an isothermal mode and the sample weight recorded as the relative humidity was varied. During the adsorption phase Ib gained 0.5 wt % between 5% relative humidity (RH) and 85% RH. […] At the end of the analysis the sample was still solid and appeared to be crystalline. After the TGA analysis a portion of the sample was recovered and analyzed by DSC. The DSC thermograms of the starting material and of the material recovered following vapor sorption analysis were superimposable.
The experimental protocol was set up to dry the sample at 60° C. for a maximum of 1 h or until an equilibrium condition was reached which fluctuated less then 0.02 wt % in 5 min. The experiment was run isothermally at 25° C., and the %RH was increased from 5% to 95% in 10% increments. After each increment the sample held constant until equilibrium was reached. Equilibrium was defined as a per cent weight change of not more than 0.005 wt % in 5.00 minutes. After reaching 95% RH the RH was lowered back to 5% RH. If equilibrium was not reached within 2 hours, the %RH was advanced to the next programmed level.

[3] = Thermal stability on modulated temperature x-ray diffractometer; format: physicochemical; conditions: for thermal stability of crystalline form: monohydrochloride
Vacuum drying of Form B = format: physicochemical
[4] = Physical stability of Form B on storage; format: physicochemical; conditions: ambient temperature, 25° C./60% RH, 30° C./60% RH, 40° C./75% RH, at least 4 weeks
Text: The Form B-polymorph was crystallized from water and formed platelets (FIG. 3B). […] (FIG. 5B) corresponding to approximately one mole of water per mole of Ib.

Bulk and tap density = format: physicochemical
Procedure: The bulk density of Ib was determined Vanderkamp™ tap density tester, with an acoustic cabinet, or equivalent (Van-Kel Industries, Inc., 36 Meridian Road, Edison, N.J. 08820) apparatus following. Ib was passed through a 20 mesh. A powder funnel was placed on top of a cylinder and the powder was transferred rapidly in to the cylinder while avoiding agitation or tapping of the cylinder and the lower funnel. The sample weight in the cylinder was determined and the bulk density was calculated.
The tapped density was determined by measuring the volume of drug substance in a 25 mL graduated cylinder after 300 taps of a known amount of drug substance. The apparatus used was a VanderKamp Tapped Density Tester. The tapped density was calculated as the known weight of drug substance divided by the measured volume.

[5] = compared with ribavirin; cited from earlier work
Th1 cytokine expression = conditions: antiviral Th1 cytokine expression; cited from earlier work
HCV = conditions: unlike ribavirin; cited from earlier work
[6] = Light Control (wrapped in aluminum foil), ICH Q1B
[7] = heating from room temperature to 175° C.

2-(S)-amino-3-methyl-butyric acid 5S-(3-carbamoyl-[1,2,4]triazol-1-yl)-3R,4S-dihydroxy-tetrahydrofuran-2S-yl methyl ester, monohydrochloride [Form A]
% Purity (ext. std) ([1]; 2–8° C., 3 months): 99.9%
Appearance ([1]; 2–8° C., 3 months): White to off-white
% Purity (ext. std) ([1]; 2–8° C., 4 weeks): 100.4%
Appearance ([1]; 2–8° C., 4 weeks): White crystalline
% Purity (ext. std) ([1]; 25° C. 60% RH, 3 months): 99.8%
Appearance ([1]; 25° C. 60% RH, 3 months): White to off-white
% Purity (ext. std) ([1]; 25° C. 60% RH, 4 weeks): 100.2%
Appearance ([1]; 25° C. 60% RH, 4 weeks): White crystalline
% Purity (ext. std) ([1]; 30° C. 60% RH, 3 months): 100.2%
Appearance ([1]; 30° C. 60% RH, 3 months): White to off-white
% Purity (ext. std) ([1]; 30° C. 60% RH, 4 weeks): 100.7%
Appearance ([1]; 30° C. 60% RH, 4 weeks): White crystalline
% Purity (ext. std) ([1]; 40° C. 75% RH, 3 months): 100.1%
Appearance ([1]; 40° C. 75% RH, 3 months): White to off-white
% Purity (ext. std) ([1]; 40° C. 75% RH, 4 weeks): 100.6%
Appearance ([1]; 40° C. 75% RH, 4 weeks): White crystalline
% Purity (ext. std) ([1]; 60° C., 3 months): 98.7%
Appearance ([1]; 60° C., 3 months): White to off-white
% Purity (ext. std) ([1]; 60° C., 4 weeks): 100.8%
Appearance ([1]; 60° C., 4 weeks): White crystalline
% Purity (ext. std) [1, 6]: 100.9%
Appearance [1, 6]: White crystalline
% Purity (ext. std) ([1]; Light, ICH Q1B): 100.9%
Appearance ([1]; Light, ICH Q1B): White crystalline
% Purity (ext. std) ([1]; RT, Initial): 98.1%
Appearance ([1]; RT, Initial): White crystalline
hygroscopicity ([2]; 5%-95%-5% RH cycle, 25° C.): not hygroscopic
DSC thermograms of starting material and material recovered following vapor sorption analysis ([2]; after 5%-95%-5% RH cycle): superimposable
weight gained during adsorption phase ([2]; between 5% RH and 85% RH, isothermal 25° C.): 0.5 wt %
weight increase during adsorption phase ([2]; between 85% and 95% RH, isothermal 25° C.): < 2.5 weight percent
weight change during desorption phase ([2]; same %RH ranges, desorption): virtually all of the weight gained in the adsorption phase was lost
thermal stability of crystalline form [3, 7]: did not change its crystalline form

2-(S)-amino-3-methyl-butyric acid 5S-(3-carbamoyl-[1,2,4]triazol-1-yl)-3R,4S-dihydroxy-tetrahydrofuran-2S-yl methyl ester, monohydrochloride [Form B]
crystalline form after vacuum drying (Vacuum drying of Form B; at elevated temperature): conversion of Form B to Form A
crystalline form after vacuum drying (Vacuum drying of Form B; in the absence of heat): stable
physical stability on storage [4]: physically stable
crystalline form after heating and cooling ([3]; from 32° C. to 140° C.): conversion of Form B into Form A
temperature above which Form B was converted into Form A [3, 7]: above 80 °C
thermal stability of crystalline form [3, 7]: unstable

CC(C)C(N)C(=O)OC[C@@H]1O[C@H](n2cnc(C(N)=O)n2)[C@@H](O)[C@H]1O (stereo partly drawn) [Ib, 2-(S)-amino-3-methyl-butyric acid 5S-(3-carbamoyl-[1,2,4]triazol-1-yl)-3R,4S-dihydroxy-tetrahydrofuran-2S-yl methyl ester, monohydrochloride]
change in DSC thermograms, specific rotation, water content, x-ray diffraction pattern and purity ([1]; over the study period, all storage conditions): no discernable change
bulk density (Bulk and tap density): 0.35 g/mL
tapped density (Bulk and tap density; after 300 taps): 0.58 g/mL

NC(=O)c1ncn([C@H]2O[C@@H](CO)[C@H](O)[C@@H]2O)n1 [Levovirin, 1-(3S,4R-dihydroxy-5S-hydroxymethyl-tetrahydro-furan-2S-yl)-1H-[1,2,4]triazole-3-carboxylic acid amide]
toxicity [5]: appears to lack toxicity associated with ribavirin
immune response (Th1 cytokine expression): stimulates immune responses by enhancing antiviral Th1 cytokine expression
direct antiviral activity (HCV): does not have direct detectable antiviral activity
